Laboratory results taken from the supplement of paper PMC10307832.

Columns and labels:
Test in all cases: relative viability (nuclei count vs DMSO), 5 days (fraction); higher = more cells survive
AT-7519 + OSI-027 = compound: O=C(NC1CCNCC1)c1n[nH]cc1NC(=O)c1c(Cl)cccc1Cl [AT-7519] + COc1cccc2cc(-c3nc([C@H]4CC[C@H](C(=O)O)CC4)n4ncnc(N)c34)[nH]c12 [OSI-027] (partner 0.5 µM)
In short: (§1)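 Dosing by pin tool came one day after lung cancer cell lines were seeded in 1536-well plates, using either one drug or a fixed anchor-drug dose plus five library-drug doses (not always all listed) in √10 steps. After 5 days, nuclei were counted on 4× images. Relative viability is treated-well nuclei count divided by vehicle-well nuclei count, and values are medians of duplicate plates.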

[1] = compound: C1=CC2=C(C=C(C(=C2N=C1)O)N=NC3=CC4=C(C=C3)C=C(C=C4)S(=O)(=O)O)S(=O)(=O)O + CS(=O)(=O)N1CCN(Cc2cc3nc(-c4cccc5[nH]ncc45)nc(N4CCOCC4)c3s2)CC1 [Pictilisib] (partner 1 µM)
In short: as §1

[2] = compound: C1=CC2=C(C=C(C(=C2N=C1)O)N=NC3=CC4=C(C=C3)C=C(C=C4)S(=O)(=O)O)S(=O)(=O)O + CCNC(=O)c1noc(-c2cc(C(C)C)c(O)cc2O)c1-c1ccc(CN2CCOCC2)cc1 [Luminespib] (partner 0.01 µM)
In short: as §1

AT-7519 + AZD7762 = compound: O=C(NC1CCNCC1)c1n[nH]cc1NC(=O)c1c(Cl)cccc1Cl [AT-7519] + NC(=O)Nc1cc(-c2cccc(F)c2)sc1C(=O)N[C@H]1CCCNC1 [AZD7762] (partner 0.2 µM)
In short: as §1

## NCI-H1563
AT-7519 + OSI-027; first compound 0.01 µM
  relative viability: 0.737
AT-7519 + OSI-027; first compound 0.03162 µM
  relative viability: 0.794
AT-7519 + OSI-027; first compound 0.3162 µM
  relative viability: 0.722
AT-7519 + OSI-027; first compound 1 µM
  relative viability: 0.728
[1]; first compound 0.08 µM
  relative viability: 0.623
[1]; first compound 0.253 µM
  relative viability: 0.638
[1]; first compound 0.8 µM
  relative viability: 0.653
[1]; first compound 2.53 µM
  relative viability: 0.626
[1]; first compound 8 µM
  relative viability: 0.701
[2]; first compound 0.08 µM
  relative viability: 0.514
[2]; first compound 0.253 µM
  relative viability: 0.522
[2]; first compound 0.8 µM
  relative viability: 0.489
[2]; first compound 2.53 µM
  relative viability: 0.498
[2]; first compound 8 µM
  relative viability: 0.404

## NCI-H1623
AT-7519 + OSI-027; first compound 0.01 µM
  relative viability: 0.529
AT-7519 + OSI-027; first compound 0.03162 µM
  relative viability: 0.424
AT-7519 + OSI-027; first compound 0.3162 µM
  relative viability: 0.432
AT-7519 + OSI-027; first compound 1 µM
  relative viability: 0.362
[2]; first compound 0.08 µM
  relative viability: 0.747
[2]; first compound 0.253 µM
  relative viability: 0.471
[2]; first compound 0.8 µM
  relative viability: 0.471
[2]; first compound 2.53 µM
  relative viability: 0.503
[2]; first compound 8 µM
  relative viability: 0.559

## NCI-H1648
AT-7519 + OSI-027; first compound 0.01 µM
  relative viability: 0.265
AT-7519 + OSI-027; first compound 0.3162 µM
  relative viability: 0.262
AT-7519 + OSI-027; first compound 1 µM
  relative viability: 0.293
AT-7519 + AZD7762; first compound 0.01 µM
  relative viability: 0.63
AT-7519 + AZD7762; first compound 0.3162 µM
  relative viability: 0.578
AT-7519 + AZD7762; first compound 1 µM
  relative viability: 1.12

## NCI-H1650
AT-7519 + OSI-027; first compound 0.01 µM
  relative viability: 0.779
AT-7519 + OSI-027; first compound 0.03162 µM
  relative viability: 0.598
AT-7519 + OSI-027; first compound 0.3162 µM
  relative viability: 0.46
AT-7519 + OSI-027; first compound 1 µM
  relative viability: 0.181
[1]; first compound 0.08 µM
  relative viability: 0.645
[1]; first compound 0.253 µM
  relative viability: 0.587
[1]; first compound 0.8 µM
  relative viability: 0.529
[1]; first compound 2.53 µM
  relative viability: 0.648
[1]; first compound 8 µM
  relative viability: 0.596
[2]; first compound 0.08 µM
  relative viability: 0.197
[2]; first compound 0.253 µM
  relative viability: 0.177
[2]; first compound 0.8 µM
  relative viability: 0.194
[2]; first compound 2.53 µM
  relative viability: 0.191
[2]; first compound 8 µM
  relative viability: 0.184

## NCI-H1703
AT-7519 + AZD7762; first compound 0.3162 µM
  relative viability: 0.152
AT-7519 + AZD7762; first compound 1 µM
  relative viability: 0.148
[1]; first compound 0.08 µM
  relative viability: 0.264
[1]; first compound 0.253 µM
  relative viability: 0.232
[1]; first compound 0.8 µM
  relative viability: 0.265
[1]; first compound 2.53 µM
  relative viability: 0.246
[1]; first compound 8 µM
  relative viability: 0.197

## NCI-H2009
AT-7519 + OSI-027; first compound 0.01 µM
  relative viability: 0.638
AT-7519 + OSI-027; first compound 0.03162 µM
  relative viability: 0.665
AT-7519 + OSI-027; first compound 0.3162 µM
  relative viability: 0.587
AT-7519 + OSI-027; first compound 1 µM
  relative viability: 0.321
[1]; first compound 0.08 µM
  relative viability: 0.789
[1]; first compound 0.253 µM
  relative viability: 0.82
[1]; first compound 0.8 µM
  relative viability: 0.757
[1]; first compound 2.53 µM
  relative viability: 0.747
[1]; first compound 8 µM
  relative viability: 0.761
[2]; first compound 0.08 µM
  relative viability: 1.08
[2]; first compound 0.253 µM
  relative viability: 0.995
[2]; first compound 0.8 µM
  relative viability: 1.04
[2]; first compound 2.53 µM
  relative viability: 1.14
[2]; first compound 8 µM
  relative viability: 0.623

## NCI-H2023
AT-7519 + OSI-027; first compound 0.01 µM
  relative viability: 0.435
AT-7519 + OSI-027; first compound 0.03162 µM
  relative viability: 0.347
AT-7519 + OSI-027; first compound 0.3162 µM
  relative viability: 0.351
AT-7519 + OSI-027; first compound 1 µM
  relative viability: 0.203
[1]; first compound 0.08 µM
  relative viability: 0.218
[1]; first compound 0.253 µM
  relative viability: 0.261
[1]; first compound 0.8 µM
  relative viability: 0.257
[1]; first compound 2.53 µM
  relative viability: 0.251
[1]; first compound 8 µM
  relative viability: 0.298
[2]; first compound 0.08 µM
  relative viability: 0.87
[2]; first compound 0.253 µM
  relative viability: 0.741
[2]; first compound 0.8 µM
  relative viability: 0.788
[2]; first compound 2.53 µM
  relative viability: 0.914
[2]; first compound 8 µM
  relative viability: 0.52

## NCI-H2228
AT-7519 + OSI-027; first compound 0.01 µM
  relative viability: 0.517
AT-7519 + OSI-027; first compound 0.03162 µM
  relative viability: 0.586
AT-7519 + OSI-027; first compound 0.3162 µM
  relative viability: 0.469
AT-7519 + OSI-027; first compound 1 µM
  relative viability: 0.446
[1]; first compound 0.08 µM
  relative viability: 0.435
[1]; first compound 0.253 µM
  relative viability: 0.427
[1]; first compound 0.8 µM
  relative viability: 0.289
[1]; first compound 2.53 µM
  relative viability: 0.567
[1]; first compound 8 µM
  relative viability: 0.291
[2]; first compound 0.08 µM
  relative viability: 0.136
[2]; first compound 0.253 µM
  relative viability: 0.13
[2]; first compound 0.8 µM
  relative viability: 0.134
[2]; first compound 2.53 µM
  relative viability: 0.166
[2]; first compound 8 µM
  relative viability: 0.0984

## NCI-H2342
AT-7519 + OSI-027; first compound 0.01 µM
  relative viability: 0.628
AT-7519 + OSI-027; first compound 0.03162 µM
  relative viability: 0.533
AT-7519 + OSI-027; first compound 0.3162 µM
  relative viability: 0.591
AT-7519 + OSI-027; first compound 1 µM
  relative viability: 0.62
AT-7519 + AZD7762; first compound 0.01 µM
  relative viability: 0.514
AT-7519 + AZD7762; first compound 0.03162 µM
  relative viability: 0.507
AT-7519 + AZD7762; first compound 0.3162 µM
  relative viability: 0.508
AT-7519 + AZD7762; first compound 1 µM
  relative viability: 0.447
[2]; first compound 0.08 µM
  relative viability: 0.67
[2]; first compound 0.253 µM
  relative viability: 0.714
[2]; first compound 0.8 µM
  relative viability: 0.625
[2]; first compound 2.53 µM
  relative viability: 0.767
[2]; first compound 8 µM
  relative viability: 0.73

## SK-LU-1
AT-7519 + OSI-027; first compound 0.01 µM
  relative viability: 0.356
AT-7519 + OSI-027; first compound 0.03162 µM
  relative viability: 0.315
AT-7519 + OSI-027; first compound 0.3162 µM
  relative viability: 0.282
AT-7519 + OSI-027; first compound 1 µM
  relative viability: 0.168
[1]; first compound 0.08 µM
  relative viability: 0.615
[1]; first compound 0.253 µM
  relative viability: 0.55
[1]; first compound 0.8 µM
  relative viability: 0.57
[1]; first compound 2.53 µM
  relative viability: 0.61
[1]; first compound 8 µM
  relative viability: 0.621
[2]; first compound 0.08 µM
  relative viability: 0.175
[2]; first compound 0.253 µM
  relative viability: 0.203
[2]; first compound 0.8 µM
  relative viability: 0.208
[2]; first compound 2.53 µM
  relative viability: 0.209
[2]; first compound 8 µM
  relative viability: 0.175

## SK-MES-1
AT-7519 + OSI-027; first compound 0.01 µM
  relative viability: 0.615
AT-7519 + OSI-027; first compound 0.03162 µM
  relative viability: 0.58
AT-7519 + OSI-027; first compound 0.3162 µM
  relative viability: 0.564
AT-7519 + OSI-027; first compound 1 µM
  relative viability: 0.332
[1]; first compound 0.08 µM
  relative viability: 0.444
[1]; first compound 0.253 µM
  relative viability: 0.354
[1]; first compound 0.8 µM
  relative viability: 0.376
[1]; first compound 2.53 µM
  relative viability: 0.328
[1]; first compound 8 µM
  relative viability: 0.377
[2]; first compound 0.08 µM
  relative viability: 0.786
[2]; first compound 0.253 µM
  relative viability: 0.818
[2]; first compound 0.8 µM
  relative viability: 0.735
[2]; first compound 2.53 µM
  relative viability: 0.662
[2]; first compound 8 µM
  relative viability: 0.783

## SW 900
AT-7519 + OSI-027; first compound 0.01 µM
  relative viability: 0.489
AT-7519 + OSI-027; first compound 0.03162 µM
  relative viability: 0.581
AT-7519 + OSI-027; first compound 0.3162 µM
  relative viability: 0.624
AT-7519 + OSI-027; first compound 1 µM
  relative viability: 0.424
AT-7519 + AZD7762; first compound 0.01 µM
  relative viability: 0.637
AT-7519 + AZD7762; first compound 0.03162 µM
  relative viability: 0.616
AT-7519 + AZD7762; first compound 0.3162 µM
  relative viability: 0.677
AT-7519 + AZD7762; first compound 1 µM
  relative viability: 0.477
[2]; first compound 0.08 µM
  relative viability: 0.175
[2]; first compound 0.253 µM
  relative viability: 0.2
[2]; first compound 0.8 µM
  relative viability: 0.18
[2]; first compound 2.53 µM
  relative viability: 0.186
[2]; first compound 8 µM
  relative viability: 0.163

## SW 1573
AT-7519 + OSI-027; first compound 0.01 µM
  relative viability: 0.604
AT-7519 + OSI-027; first compound 0.03162 µM
  relative viability: 0.659
AT-7519 + OSI-027; first compound 0.3162 µM
  relative viability: 0.436
AT-7519 + OSI-027; first compound 1 µM
  relative viability: 0.107
[1]; first compound 0.08 µM
  relative viability: 0.449
[1]; first compound 0.253 µM
  relative viability: 0.431
[1]; first compound 0.8 µM
  relative viability: 0.475
[1]; first compound 2.53 µM
  relative viability: 0.447
[1]; first compound 8 µM
  relative viability: 0.523
[2]; first compound 0.08 µM
  relative viability: 0.174
[2]; first compound 0.253 µM
  relative viability: 0.598
[2]; first compound 0.8 µM
  relative viability: 0.268
[2]; first compound 2.53 µM
  relative viability: 0.372
[2]; first compound 8 µM
  relative viability: 0.216
